Tests used:
Assay in all cases: combination Emax (second highest fraction inhibited in the dose matrix, 72 h); higher = more inhibition; extreme values may be limits of the assay
[1] = test system: CAL-29 (Bladder Carcinoma)
Method in brief: (§1)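 After 24 hours at 37°C and 5% CO2 in 1536-well plates, cells in DMEM/F12 or RPMI plus 10% FBS received two-drug dose matrices for 72 hours. Viability came from CellTiter-Glo 2.0 luminescence and was scaled as inhibition, anchored at 0 by vehicle wells and at 1 by blank wells. Combination Emax is taken as the second-highest inhibition in the matrix, and Bliss excess as the observed combination effect less EA + EB − EA·EB, with EA and EB the single-agent effects.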

CAS-1 (Glioblastoma) = test system: CAS-1 (Glioblastoma)
Method in brief: as §1

PA-1 (Ovarian Carcinoma) = test system: PA-1 (Ovarian Carcinoma)
Method in brief: as §1

[2] = test system: HCC1954 (Breast Carcinoma)
Method in brief: as §1

[3] = test system: JSC-1 (B-Cell Non-Hodgkin's Lymphoma)
Method in brief: as §1

[4] = test system: COLO-320-HSR (Colorectal Carcinoma)
Method in brief: as §1

[5] = test system: ONS-76 (Other Solid Carcinomas)
Method in brief: as §1

[6] = test system: NCI-H1650 (Lung Adenocarcinoma)
Method in brief: as §1

A498 (Kidney Carcinoma) = test system: A498 (Kidney Carcinoma)
Method in brief: as §1

[7] = test system: KARPAS-422 (B-Cell Non-Hodgkin's Lymphoma)
Method in brief: as §1

[8] = test system: NCI-H1666 (Lung Adenocarcinoma)
Method in brief: as §1

[9] = test system: NCI-H1581 (Non-Small Cell Lung Carcinoma)
Method in brief: as §1

[10] = test system: TT (Thyroid Gland Carcinoma)
Method in brief: as §1

[11] = test system: SISO (Cervical Carcinoma)
Method in brief: as §1

[12] = test system: A3-KAW (B-Cell Non-Hodgkin's Lymphoma)
Method in brief: as §1

[13] = test system: COR-L311 (Small Cell Lung Carcinoma)
Method in brief: as §1

[14] = test system: BICR22 (Oral Cavity Carcinoma)
Method in brief: as §1

[15] = test system: NCI-H2066 (Squamous Cell Lung Carcinoma)
Method in brief: as §1

8-MG-BA (Glioblastoma) = test system: 8-MG-BA (Glioblastoma)
Method in brief: as §1

IGR-37 (Melanoma) = test system: IGR-37 (Melanoma)
Method in brief: as §1

| SMILES | combination Emax [1] | combination Emax (CAS-1 (Glioblastoma)) | combination Emax (PA-1 (Ovarian Carcinoma)) | combination Emax [2] | combination Emax [3] | combination Emax [4] | combination Emax [5] | combination Emax [6] | combination Emax (A498 (Kidney Carcinoma)) | combination Emax [7] | combination Emax [8] | combination Emax [9] | combination Emax [10] | combination Emax [11] | combination Emax [12] | combination Emax [13] | combination Emax [14] | combination Emax [15] | combination Emax (8-MG-BA (Glioblastoma)) | combination Emax (IGR-37 (Melanoma)) |
| --- | --- | --- | --- | --- | --- | --- | --- | --- | --- | --- | --- | --- | --- | --- | --- | --- | --- | --- | --- | --- |
| COc1cccc(OCCCN)c1-c1cc(Nc2cnc(C#N)cn2)n[nH]1 [Prexasertib] + C=CCn1c(=O)c2cnc(Nc3ccc(N4CCN(C)CC4)cc3)nc2n1-c1cccc(C(C)(C)O)n1 [AZD1775] (first compound max 1 µM, partner max 1 µM) | 0.876 | 0.696 | 0.851 | 0.963 | 0.998 | 0.86 | 0.829 | 0.6 | 0.598 | 0.985 | 0.431 | 0.75 | 0.759 | 0.891 | 1 | 0.861 | 0.813 | 0.621 | 0.977 | 0.879 |
| COc1cccc(OCCCN)c1-c1cc(Nc2cnc(C#N)cn2)n[nH]1 [Prexasertib] + CCc1c2c(nc3ccc(O)cc13)-c1cc3c(c(=O)n1C2)COC(=O)[C@]3(O)CC [SN-38] (first compound max 1 µM, 7x7, partner max 0.3 µM) | 0.98 | 0.834 | 0.91 | 0.929 | 0.987 | 0.838 | 0.867 | 0.778 | 0.733 | 1 | 0.643 | 0.897 | 0.916 | 0.972 | 1 | 1 | 0.936 | 0.5 | 0.989 | 0.942 |
| COc1cccc(OCCCN)c1-c1cc(Nc2cnc(C#N)cn2)n[nH]1 [Prexasertib] + CN(C)CCCOc1ccc(-c2ccc3ncc4c(c3c2)n(C2CCOCC2)c(=O)n4C)cn1 [AZD0156] (first compound max 1 µM, 7x7, partner max 1 µM) | 0.836 | 0.674 | 0.725 | 0.862 | 1 | 0.691 | 0.862 | 0.51 | 0.725 | 0.904 | 0.35 | 0.284 | 0.676 | 0.745 | 1 | 0.77 | 0.742 | 0.402 | 0.934 | 0.912 |
| COc1cccc(OCCCN)c1-c1cc(Nc2cnc(C#N)cn2)n[nH]1 [Prexasertib] + C[C@@H]1COCCN1C2=NC(=NC(=C2)C3(CC3)[S@](=N)(=O)C)C4=C5C=CNC5=NC=C4 [AZD6738] (first compound max 1 µM, 7x7, partner max 10 µM) | 0.839 | 0.652 | 0.778 | 0.878 | 0.995 | 0.726 | 0.903 | 0.519 | 0.692 | 0.88 | 0.463 | 0.566 | 0.662 | 0.798 | 1 | 0.771 | 0.789 | 0.454 | 0.926 | 0.896 |
| COc1cccc(OCCCN)c1-c1cc(Nc2cnc(C#N)cn2)n[nH]1 [Prexasertib] + Cc1cc2ncnn2cc1Nc1ncc2c(n1)n(C1CCOCC1)c(=O)n2C [AZD7648] (first compound max 1 µM, 7x7, partner max 10 µM) | 0.79 | 0.71 | 0.734 | 0.843 | 1 | 0.669 | 0.862 | 0.55 | 0.642 | 0.908 | 0.334 | 0.418 | 0.611 | 0.759 | 1 | 0.789 | 0.761 | 0.437 | 0.951 | 0.923 |
| COc1cccc(OCCCN)c1-c1cc(Nc2cnc(C#N)cn2)n[nH]1 [Prexasertib] + O=C(c1cc(Cc2n[nH]c(=O)c3ccccc23)ccc1F)N1CCN(C(=O)C2CC2)CC1 [Olaparib] (first compound max 1 µM, 7x7, partner max 10 µM) | 0.714 | 0.588 | 0.706 | 0.866 | 0.996 | 0.522 | 0.793 | 0.494 | 0.591 | 0.92 | 0.26 | 0.563 | 0.59 | 0.803 | 1 | 0.803 | 0.78 | 0.316 | 0.969 | 0.961 |
| COc1cc2c(cc1OCCCCCOc1cc3c(cc1OC)C(=O)N1C=C(C)C[C@H]1C=N3)N=C[C@@H]1CC(C)=CN1C2=O [SG3199] + O=C(c1cc(Cc2n[nH]c(=O)c3ccccc23)ccc1F)N1CCN(C(=O)C2CC2)CC1 [Olaparib] (first compound max 0.001 µM, 7x7, partner max 10 µM) | 0.0858 | 0.235 | 0.324 | 0.165 | 0.116 | 0.061 | 0.206 | 0.0953 | 0.173 | 0.258 | 0.0849 | 0.136 | 0.187 | 0.226 | 0.595 | 0.515 | 0.124 | 0.108 | 0.267 | 0.0632 |
| CCc1c2c(nc3ccc(O)cc13)-c1cc3c(c(=O)n1C2)COC(=O)[C@]3(O)CC [SN-38] + CN(C)CCCOc1ccc(-c2ccc3ncc4c(c3c2)n(C2CCOCC2)c(=O)n4C)cn1 [AZD0156] (first compound max 0.3 µM, 7x7, partner max 1 µM) | 0.928 | 0.494 | 0.845 | 0.376 | 0.983 | 0.284 | 0.805 | 0.501 | 0.5 | 0.937 | 0.626 | 0.785 | 0.827 | 0.928 | 1 | 0.821 | 0.907 | 0.154 | 0.975 | 0.826 |
| C[C@@H](c1ccc2nccn2c1)n1nnc2ncc(-c3cnn(C)c3)nc21 [Savolitinib] + CC1(C)CCC(CN2CCN(c3ccc(C(=O)NS(=O)(=O)c4ccc(NCC5CCOCC5)c([N+](=O)[O-])c4)c(Oc4cnc5[nH]ccc5c4)c3)CC2)=C(c2ccc(Cl)cc2)C1 [Venetoclax] (first compound max 1 µM, 7x7, partner max 1 µM) | 0.0725 | 0.212 | 0.276 | 0.136 | 0.115 | 0.213 | 0.118 | 0.127 | 0.172 | 0.257 | 0.152 | 0.135 | 0.173 | 0.0509 | 0.188 | 0.525 | 0.108 | 0.195 | 0.12 | 0.3 |
| C[C@@H](c1ccc2nccn2c1)n1nnc2ncc(-c3cnn(C)c3)nc21 [Savolitinib] + Cc1c2c(nn1C)CSCc1cc(n(C)n1)CSc1cc(c3ccccc3c1)OCCCc1c(C(=O)O)n(C)c3c-2c(Cl)ccc13 [AZD5991] (first compound max 1 µM, 7x7, partner max 1 µM) | 0.186 | 0.194 | 0.885 | 0.85 | 1 | 0.779 | 0.153 | 0.132 | 0.212 | 0.961 | 0.178 | 0.951 | 0.244 | 0.0507 | 1 | 0.246 | 0.269 | 0.169 | 0.595 | 0.279 |
| Cn1cnc2c(F)c(Nc3ccc(Br)cc3Cl)c(C(=O)NOCCO)cc21 [Selumetinib] + C=CCn1c(=O)c2cnc(Nc3ccc(N4CCN(C)CC4)cc3)nc2n1-c1cccc(C(C)(C)O)n1 [AZD1775] (first compound max 10 µM, partner max 1 µM) | 0.654 | 0.39 | 0.875 | 0.397 | 0.945 | 0.589 | 0.682 | 0.34 | 0.408 | 0.623 | 0.538 | 0.639 | 0.305 | 0.539 | 0.953 | 0.504 | 0.523 | 0.351 | 0.797 | 0.878 |
| Cn1cnc2c(F)c(Nc3ccc(Br)cc3Cl)c(C(=O)NOCCO)cc21 [Selumetinib] + CC(C)n1c(=O)n(C)c2cnc3cc(F)c(-c4ccc(OCCCN5CCCCC5)nc4)cc3c21 [AZD1390] (first compound max 10 µM, 7x7, partner max 0.3 µM) | 0.216 | 0.241 | 0.276 | 0.227 | 0.584 | 0.181 | 0.713 | 0.132 | 0.318 | 0.123 | 0.529 | 0.455 | 0.201 | 0.0869 | 0.408 | 0.109 | 0.334 | 0.254 | 0.116 | 0.76 |
| Cn1cnc2c(F)c(Nc3ccc(Br)cc3Cl)c(C(=O)NOCCO)cc21 [Selumetinib] + CCN(CCO)CCCOc1ccc2c(Nc3cc(CC(=O)Nc4cccc(F)c4)[nH]n3)ncnc2c1 [AZD2811] (first compound max 10 µM, 7x7, partner max 1 µM) | 0.389 | 0.277 | 0.654 | 0.29 | 0.682 | 0.249 | 0.728 | 0.213 | 0.383 | 0.263 | 0.506 | 0.487 | 0.453 | 0.338 | 0.597 | 0.733 | 0.538 | 0.286 | 0.286 | 0.774 |
